Experimental data from a melting point compilation (Tetko et al.; mined from patent text by program, amines drawn as free bases though some values may be those of a salt).

Question: With COc1cc2c(cc1O)CCCN(Cc1cc(OC)c(OC)c(OC)c1)C2 as the molecule, how does the melting point read?
Answer: 46 to 48 °C

Question: For Cc1oc(-c2ccco2)nc1COc1ccc(CCl)cc1Br, which melting point is on record?
Answer: 125 to 126 °C

Question: With CCC(C#N)(C(N)=O)c1ccccc1 (stereo unspecified) as the molecule, how does the melting point read?
Answer: 116 to 117 °C

Question: With O=c1[nH]c(=O)n(Cc2ccc(OCc3noc(-c4ccccc4)n3)cc2)o1 as the molecule, how does the melting point read?
Answer: 150 to 151 °C

Question: With CCN(Cc1ccc(F)nc1)C(=S)NC as the molecule, how does the melting point read?
Answer: 123 to 124 °C

Question: For CCOC(=O)c1cccc(S(=O)(=O)NC(=O)Nc2nc(C)nc(OC)n2)c1I, which melting point is on record?
Answer: 177 to 179 °C

Question: Which melting point does the source give for O=c1nc(-c2cccs2)sc2ccccc12 here?
Answer: 158 °C

Question: Which melting point does the source give for CCN1CCc2cc(Nc3ncc(Cl)c(Nc4ccc(N5CCOCC5)cc4OC)n3)c(OC)cc2CC1=O here?
Answer: 212 to 214 °C

Question: For COc1cc2c(cc1Nc1ncc(Cl)c(Nc3ccccc3S(=O)(=O)N(C)C)n1)CCN(CC(=O)N(C)C)CC2, which melting point is on record?
Answer: 218 to 225 °C

Question: With CN(C)C1CCN(C(=O)C2CCC(c3[nH]nc4c3C(=O)c3c(NC(=O)NN5CCOCC5)cccc3-4)CC2)C1 (stereo unspecified) as the molecule, how does the melting point read?
Answer: 191 to 193 °C

Question: For CN1C[C@@H](C(=O)OCc2ccccc2)NC1=O, which melting point is on record?
Answer: 94 to 95 °C

Question: With Cc1noc(NS(=O)(=O)c2ccccc2-c2ccc(-c3ncco3)cc2C(O)c2ncc(-c3ccccc3)o2)c1C (stereo unspecified) as the molecule, how does the melting point read?
Answer: 125 to 135 °C

Question: With Cc1cc(C(=CNc2ccc(O)cc2)C(=O)c2ccccc2)on1 as the molecule, how does the melting point read?
Answer: 73 to 74 °C

Question: For Clc1cc(Cl)c(-n2nccc2Cl)c(Cl)c1, which melting point is on record?
Answer: 96 °C

Question: Which melting point does the source give for O=C(/C=C1\CCc2ccc(F)cc21)NC1CC1 here?
Answer: 124 to 127 °C

Question: Which melting point does the source give for CCN(CC)c1ccc2cc([N+](=O)[O-])c(=O)oc2c1 here?
Answer: 193 to 195 °C

Question: Which melting point does the source give for CCCn1c(COCC)nc2c(N)nc3ccc(OC4CCN(C(=O)C(C)C)CC4)cc3c21 here?
Answer: 177 to 179 °C

Question: With COc1cc(C)nc(N(C)C(=O)NS(=O)(=O)c2c(Cl)cccc2Cl)n1 as the molecule, how does the melting point read?
Answer: 170 to 171 °C

Question: For Cc1ccc(N(C(=O)CCl)c2c(Cl)cccc2Cl)cc1, which melting point is on record?
Answer: 130 °C

Question: With CC(C)[C@]1(CCc2ccsc2)CC(O)=CC(=O)O1 as the molecule, how does the melting point read?
Answer: 117 to 123 °C

Question: With CCCCCCCCCCCCCCCCC[C@@H](C[C@@H]1OC(=O)[C@H]1CC)OC(=O)[C@H](CC(C)C)NC=O as the molecule, how does the melting point read?
Answer: 60 to 61 °C

Question: For CC=Cc1nc2cc3c(cc2[nH]1)NC(=O)C3(C)C, which melting point is on record?
Answer: 252 to 254 °C

Question: Which melting point does the source give for CC(Sc1cc2ccccc2[nH]1)(C(=O)OCc1ccccc1)c1ccccc1 (stereo unspecified) here?
Answer: 102 to 103 °C

Question: With CN1C(=O)CC[C@]2(C)c3ccc(-c4ccc(F)c(F)c4F)cc3CC[C@@H]12 as the molecule, how does the melting point read?
Answer: 100 to 102 °C

Question: For CSc1c(S)c(SC)c(SC)c(SC)c1SC, which melting point is on record?
Answer: 60 °C

Question: Which melting point does the source give for O=c1[nH]c(-c2ccc(Cl)cc2)c(CN2CCOCC2)s1 here?
Answer: 206 °C

Question: Which melting point does the source give for CC(=O)N1CCC(Oc2ccccc2N2CCCCC2)CC1 here?
Answer: 69 to 70 °C

Question: Which melting point does the source give for CCOC(=O)[C@H](Cc1ccc(O)cc1)NC(=O)c1c(F)cccc1F here?
Answer: 149 to 150 °C

Question: With OCc1cn2c(n1)CN=C(c1ccccc1F)c1cc(Cl)ccc1-2 as the molecule, how does the melting point read?
Answer: 196 to 200 °C

Question: For Cn1cc(C(=O)O)c(=O)c2oc3ccc(Cl)cc3c(=O)c21, which melting point is on record?
Answer: 295 to 297 °C

Question: Which melting point does the source give for CC1Cc2c(n(-c3ccc(Cl)cc3)c3ncccc3c2=O)O1 (stereo unspecified) here?
Answer: 227 to 228 °C

Question: With COC(=O)C(NC(=O)c1ccccc1)C(C)=O (stereo unspecified) as the molecule, how does the melting point read?
Answer: 113 °C

Question: Which melting point does the source give for Cc1ccccc1-c1ccc(C(=O)N2Cc3ccc(C(=O)NCc4ccc5c(c4)OCO5)n3Cc3ccccc32)cc1C here?
Answer: 149 to 151 °C

Question: Which melting point does the source give for CCOC(=O)CCCCOc1ccc(-c2nc(N3CCOCC3)c3sc(CN4CCN(S(C)(=O)=O)CC4)cc3n2)cc1 here?
Answer: 110 to 114 °C

Question: Which melting point does the source give for O=C(O)CNC(=O)Nc1ccc([N+](=O)[O-])cc1 here?
Answer: 213 to 214 °C

Question: With C(=C\c1cc(/C=C/c2ccc3[nH]ccc3c2)n[nH]1)/c1ccc(OCc2ccccn2)cc1 as the molecule, how does the melting point read?
Answer: 95 to 102 °C

Question: With CCOC(=O)c1cc2cc(Cl)cc([N+](=O)[O-])c2o1 as the molecule, how does the melting point read?
Answer: 111 to 112 °C

Question: With COC(=O)CCSc1ncccc1C#N as the molecule, how does the melting point read?
Answer: 101 to 102 °C

Question: For CCOC(=O)C=Cc1cc2cc(OC)ccc2nc1Cl, which melting point is on record?
Answer: 113 to 114 °C

Question: For Cc1nc(C23CC4CC(CC(C4)C2)C3)oc1COC(=O)C(C)(C)O, which melting point is on record?
Answer: 68 to 70 °C

Question: With CCc1nccn1-c1nc(-c2ccc(Cl)cc2)c(CCCOc2ccccc2C)o1 as the molecule, how does the melting point read?
Answer: 91 to 92 °C

Question: With CC1=CC(OC(=O)c2ccc(O)cc2)C(O)C(C)(C)CC1=O (stereo unspecified) as the molecule, how does the melting point read?
Answer: 123 to 125 °C

Question: With COc1ccc(OC)c(COc2ccc(NC=O)c(C(N)=O)c2)c1 as the molecule, how does the melting point read?
Answer: 135 to 138 °C

Question: For COc1cccc(N(CC(=O)O)C(=O)CN2C(=O)c3ccccc3C2=O)c1, which melting point is on record?
Answer: 198 °C

Question: With CC(C)OC(=O)C(C(=O)NCc1ccccc1)=C1SCS1 as the molecule, how does the melting point read?
Answer: 93 to 94 °C

Question: Which melting point does the source give for COC(=O)C(Cc1ccc(Cl)cc1Cl)c1ccccc1Cl (stereo unspecified) here?
Answer: 67.9 °C

Question: For CCCCOc1ccc(Nc2cc(Nc3ccc4c(c3)OCCO4)ncc2F)cc1, which melting point is on record?
Answer: 150 to 151 °C

Question: Which melting point does the source give for CCCCOC(=O)NS(=O)(=O)/C=C/c1cc(OCCCC)nn1Cc1ccc(Cl)cc1Cl here?
Answer: 137 to 138 °C

Question: For CCOc1cc2ncc(C#N)c(Nc3ccc(F)c(Cl)c3)c2cc1OCC, which melting point is on record?
Answer: 194 to 198 °C

Question: With CCCCCCCCCCCCc1ccc(S(=O)(=O)Nc2nnc(C)s2)cc1 as the molecule, how does the melting point read?
Answer: 149 to 150 °C

Question: For C[C@H]1CCCN(C(=O)[C@@H]2Cc3ccccc3N2c2ccc(=S)n(C)n2)C1, which melting point is on record?
Answer: 249 to 252 °C
